Laboratory results taken from US11149062B2, “HDAC inhibitors and methods of treatment using the same” (UWM Research Foundation, Inc., priority 2015, dated 2021).

How the values were obtained:
[1] = target: T1, Recombinant human HDAC2 (Homo sapiens, UniProt Q92769); assay: HDAC-Glo I/II assay, HDAC2; format: biochemical; details: Class I HDAC; compounds reduced by TCEP prior to assay
T1 construct: purchased BPS Bioscience Inc
Procedure: (§1) The purified compounds of all fragments and natural product derivatives were evaluated for inhibitory effects on three different classes of HDAC proteins (class I, IIa, and IIb). […] All activity was determined by using a fluorescence-based in vitro assay. Class I HDAC proteins that were evaluated were HDAC1, HDAC2, HDAC3, HDAC8, HDAC4, and HDAC6. Class IIa HDAC protein were HDAC4 and the Class IIb HDAC protein were HDAC6.
(§2) HDAC-Glo™ I/II Assay and Screening System (Promega) was used to determine the HDAC inhibitory activity. Recombinant human HDAC1, HDAC2, HDAC3, HDAC4, HDAC6 and HDAC8 were purchased from BPS Bioscience Inc. The inhibitory activities of the test compounds against recombinant HDAC were performed according to reagent suppliers' protocols.
(§3) All test compounds were firstly dissolved in DMSO to make 10 mM stock solution. A certain amount of stock solution was diluted to 1 mM by DMSO and then reduced by tris(2-carboxyethyl)phosphine hydrochloride (TCEP) in a molar ration of 1:1.5 for 20 min at ambient temperature prior to being assayed. After reduction, a series of fivefold dilutions of each reduced compound were prepared with HDAC-Glo buffer and 25 μL of each dilution was added into a well on a 96-well plate. HDAC enzymes were diluted to the desired concentrations with HDAC-Glo buffer and 25 μL of each diluted enzyme was dispensed into a well to mix with 25 μL of testing compound at room temperature for 30-60 seconds. After the reaction mixture had been incubated at room temperature for 1 hour, 50 μL of HDAC-Glo reagent was added to each reaction well and mixed up for 30-60 seconds. Finally, the plate was incubated at room temperature for an additional 30 minutes before the luminescence was measured on a Synergy HT plate reader (Bio-Tek). The luminescence intensity data were analyzed using GraphPad Prism 5 (GraphPad Software). In the absence of any test compound, the luminescence intensity (I100) in each data set was defined as 100% activity. In the absence of both of HDAC enzymes and test compound, the luminescence intensity (I0) in each data set was defined as 0% activity. The relative activity (%) in the presence of each compound was calculated according to the following equation: % activity=(I−I0)/(I100−I0), where I=the luminescence intensity if a compound is present in the reaction. Experiments were performed in triplicate and the calculated mean values were used for plotting.

[2] = target: T2, Recombinant human HDAC4 (Homo sapiens, UniProt P56524); assay: HDAC-Glo I/II assay, HDAC4; format: biochemical; details: Class IIa HDAC; compounds reduced by TCEP prior to assay; read-out: IC50 of HDAC4
T2 construct: purchased BPS Bioscience Inc
Procedure: as §1, §2, §3

[3] = target: T3, Recombinant human HDAC6 (Homo sapiens, UniProt Q9UBN7); assay: HDAC-Glo I/II assay, HDAC6; format: biochemical
T3 construct: purchased BPS Bioscience Inc
T3 sequence (Q9UBN7 1-1215): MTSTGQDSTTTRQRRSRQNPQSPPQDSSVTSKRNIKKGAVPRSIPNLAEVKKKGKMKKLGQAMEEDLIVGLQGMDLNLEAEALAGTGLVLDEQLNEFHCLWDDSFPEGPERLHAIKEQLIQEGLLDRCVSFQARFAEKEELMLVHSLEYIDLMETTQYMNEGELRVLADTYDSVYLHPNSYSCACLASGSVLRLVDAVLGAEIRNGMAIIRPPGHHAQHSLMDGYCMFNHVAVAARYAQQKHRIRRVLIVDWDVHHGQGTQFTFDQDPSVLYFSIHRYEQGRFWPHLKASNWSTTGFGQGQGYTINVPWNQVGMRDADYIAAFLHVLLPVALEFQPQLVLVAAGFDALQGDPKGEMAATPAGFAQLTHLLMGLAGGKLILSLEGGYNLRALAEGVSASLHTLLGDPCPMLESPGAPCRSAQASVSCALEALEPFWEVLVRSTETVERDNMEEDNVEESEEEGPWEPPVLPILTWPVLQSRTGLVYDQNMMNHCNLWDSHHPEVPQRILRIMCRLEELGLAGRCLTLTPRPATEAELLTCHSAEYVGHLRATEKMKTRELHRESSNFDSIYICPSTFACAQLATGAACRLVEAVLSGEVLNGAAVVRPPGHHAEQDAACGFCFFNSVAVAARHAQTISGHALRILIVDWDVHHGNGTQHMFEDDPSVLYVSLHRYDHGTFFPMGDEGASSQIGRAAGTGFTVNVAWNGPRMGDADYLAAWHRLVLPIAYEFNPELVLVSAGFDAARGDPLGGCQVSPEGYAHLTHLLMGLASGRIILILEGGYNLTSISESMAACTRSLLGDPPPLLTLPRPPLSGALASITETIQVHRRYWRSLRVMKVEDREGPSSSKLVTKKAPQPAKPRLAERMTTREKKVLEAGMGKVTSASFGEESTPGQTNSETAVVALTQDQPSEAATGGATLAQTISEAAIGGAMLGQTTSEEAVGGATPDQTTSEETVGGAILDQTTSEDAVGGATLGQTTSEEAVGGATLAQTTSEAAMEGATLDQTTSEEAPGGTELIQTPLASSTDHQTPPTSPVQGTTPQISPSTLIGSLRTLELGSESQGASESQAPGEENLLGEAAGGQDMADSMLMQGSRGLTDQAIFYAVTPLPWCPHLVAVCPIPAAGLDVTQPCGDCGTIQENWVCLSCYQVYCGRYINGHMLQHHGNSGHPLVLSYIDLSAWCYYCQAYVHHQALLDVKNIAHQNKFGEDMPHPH
Procedure: as §1
HDAC-Glo™ I/II Assay and Screening System (Promega) was used to determine the HDAC inhibitory activity. […]
All test compounds were firstly dissolved in DMSO to make 10 mM stock solution. […] Finally, the plate was incubated at room temperature for an additional 30 minutes before the luminescence was measured on a Synergy HT plate reader (Bio-Tek). The luminescence intensity data were analyzed using GraphPad Prism 5 (GraphPad Software). In the absence of any test compound, the luminescence intensity (I100) in each data set was defined as 100% activity. In the absence of both of HDAC enzymes and test compound, the luminescence intensity (I0) in each data set was defined as 0% activity. The relative activity (%) in the presence of each compound was calculated according to the following equation: % activity=(I−I0)/(I100−I0), where I=the luminescence intensity if a compound is present in the reaction. […]

[4] = system: RFX393 (renal); assay: MTT antiproliferative assay, RFX393; format: cell-based; details: MTT, 48 h; read-out: Antiproliferative Activity GI50, Renal RFX393
Procedure: (§4) Briefly, the tumor cells (1×10^4 cells/well) were seeded in 96-well microtiter plates and incubated for 24 h at 37° C. Following incubation, the media was replaced with fresh media containing the above compounds at concentrations ranging from 1 μM to 1 pM diluted in DMSO and incubated for an additional 48 h. Drugs were run in duplicate or triplicate and control cells received fresh media with DMSO concentration equivalent to the treatment groups. […] After aspirating the culture medium, 200 μL of DMSO was added to dissolve the precipitate and the resulting solution was measured for absorbance at 570 nm with a reference wavelength of 690 nm using a microplate reader (Infinite M200 Pro TECAN).

[5] = system: colon (HCT-116), cervical (HeLa), and renal (RFX393) tumor cell lines; assay: MTT antiproliferative assay, all three tumor cell lines; format: cell-based; details: HCT-116, HeLa, RFX393; summary of Table 3; read-out: GI50 values against all three tumor cell lines
Procedure: as §4

T2 sequence (P56524 whole entry): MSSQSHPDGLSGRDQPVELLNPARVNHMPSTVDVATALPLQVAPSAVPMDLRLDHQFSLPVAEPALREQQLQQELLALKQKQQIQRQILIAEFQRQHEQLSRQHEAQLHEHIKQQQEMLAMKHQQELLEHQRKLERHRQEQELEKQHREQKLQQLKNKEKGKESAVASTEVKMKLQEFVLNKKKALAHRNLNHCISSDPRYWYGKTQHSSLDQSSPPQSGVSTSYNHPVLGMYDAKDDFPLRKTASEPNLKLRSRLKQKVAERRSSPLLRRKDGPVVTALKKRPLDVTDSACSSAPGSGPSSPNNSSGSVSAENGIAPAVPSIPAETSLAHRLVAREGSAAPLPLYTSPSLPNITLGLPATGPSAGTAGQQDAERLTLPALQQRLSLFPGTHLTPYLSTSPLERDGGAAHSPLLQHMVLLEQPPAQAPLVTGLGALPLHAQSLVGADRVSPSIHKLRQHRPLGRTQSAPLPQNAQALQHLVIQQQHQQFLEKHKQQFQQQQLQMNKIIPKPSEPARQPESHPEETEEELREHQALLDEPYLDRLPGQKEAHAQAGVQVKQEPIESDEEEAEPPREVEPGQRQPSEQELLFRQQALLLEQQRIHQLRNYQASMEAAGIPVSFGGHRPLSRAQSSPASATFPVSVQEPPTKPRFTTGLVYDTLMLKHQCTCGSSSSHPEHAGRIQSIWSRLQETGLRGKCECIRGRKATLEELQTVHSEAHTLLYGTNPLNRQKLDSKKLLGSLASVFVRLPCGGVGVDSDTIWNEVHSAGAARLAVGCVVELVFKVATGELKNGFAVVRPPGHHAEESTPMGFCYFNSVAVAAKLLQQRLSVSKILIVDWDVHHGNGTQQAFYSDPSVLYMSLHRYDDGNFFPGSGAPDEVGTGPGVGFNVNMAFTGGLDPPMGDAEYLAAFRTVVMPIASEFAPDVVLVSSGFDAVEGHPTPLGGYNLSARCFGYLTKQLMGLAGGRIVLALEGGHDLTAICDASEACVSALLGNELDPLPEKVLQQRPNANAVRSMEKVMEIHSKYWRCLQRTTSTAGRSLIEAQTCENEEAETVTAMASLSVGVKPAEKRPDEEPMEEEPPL
T1 sequence (Q92769 whole entry): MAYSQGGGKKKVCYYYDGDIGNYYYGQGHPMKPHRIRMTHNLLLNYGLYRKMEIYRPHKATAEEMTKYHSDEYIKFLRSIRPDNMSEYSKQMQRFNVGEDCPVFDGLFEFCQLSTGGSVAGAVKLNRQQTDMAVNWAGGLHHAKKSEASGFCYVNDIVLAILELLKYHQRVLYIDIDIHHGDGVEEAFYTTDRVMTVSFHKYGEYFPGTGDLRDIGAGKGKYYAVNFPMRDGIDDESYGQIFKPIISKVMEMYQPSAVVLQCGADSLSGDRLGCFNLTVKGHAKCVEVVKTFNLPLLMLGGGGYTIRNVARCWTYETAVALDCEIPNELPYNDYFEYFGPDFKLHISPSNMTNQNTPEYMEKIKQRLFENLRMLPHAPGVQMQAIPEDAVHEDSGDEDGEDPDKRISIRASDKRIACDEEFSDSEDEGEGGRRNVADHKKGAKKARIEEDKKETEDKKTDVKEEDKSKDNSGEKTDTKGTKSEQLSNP

Compound	IC50 [1]	IC50 [2]	inhibitory activity toward HDAC6 (in words) [3]	GI50 [4]	GI50 [5]
CSCC[C@H]1NC(=O)CC(O)/C=C/CCSSC[C@H](C(=O)O)NC1=O (stereo partly drawn) [TDF3, (4S,7R,12E)-11-hydroxy-7-[2-(methylsulfanyl)ethyl]-6,9-dioxo-1,2-dithia-5,8-diazacyclopentadec-12-ene-4-carboxylic acid]	0.0875 µM	> 1000 µM	no inhibitory activity	0.2 µM	0.6 µM
COC(=O)[C@H]1CSSCC/C=C/C(O)CC(=O)N[C@H](CCSC)C(=O)N1 (stereo partly drawn) [TDF3m, Methyl (4S,7R,12E)-11-hydroxy-7-[2-(methylsulfanyl)ethyl]-6,9-dioxo-1,2-dithia-5,8-diazacyclopentadec-12-ene-4-carboxylate]	0.0942 µM	> 1000 µM	no inhibitory activity	0.3 µM	0.4 µM
